This is an account of results in patent US8486953B2, “Thienopyrimidines for pharmaceutical compositions” (Boehringer Ingelheim International GmbH, priority 2008, dated 2013).

The test system of test [1] is Mnk2 (Mnk2a or Mnk2b) or Mnk1. Conditions: cell culture cells transfected with Mnk2 (Mnk2a or Mnk2b) or Mnk1; cited from earlier work.
In a further test the target is human Mnk2a (Homo sapiens (Human), UniProt Q9HBH9). Nature of the test: Mnk2a in vitro kinase assay (indirect fluorescence polarization). It is filed as biochemical. As to the method:
(§1) Inhibitory potency of compounds against Mnk1, Mnk2a and other kinases was assessed with assays based on a format known to those skilled in the art as the indirect (competitive) fluorescence polarization. The assay detection system comprises a small fluorophore-labeled phospho-peptide (termed ligand) bound to a phospho-specific antibody. The product generated by the kinase reaction competes with the ligand for antibody binding. Based on the larger molecular volume of the bound ligand, which results in a lower rotation rate in solution, its emitted light has a higher degree of polarization than the one from the free ligand.
(§2) In brief, the open reading frames of human Mnk1 and Mnk2a were amplified from cDNA using the forward/reverse primer pairs
(§3) (utilized restriction sites underlined), respectively, and cloned into the BamHI and SalI sites of the vector pGEX-4T1 (Amersham, Sweden, cat. no. 27-4580-01). These constructs allow prokaryotic expression of Mnk1 or Mnk2a as fusion protein with a N-terminal glutathione S-transferase (GST) tag, referred to as GST-Mnk1 or GST-Mnk2a. The following expression and purification procedure was identical for GST-Mnk1 and GST-Mnk2a, referring in general to GST-Mnk, when not distinguishing between the two isoforms. Expression of GST-Mnk was in E. coli BL21 (Merck Biosciences, Germany, cat. no. 69449). Cells were grown in LB-Bouillon (Merck, Germany, cat. no. 1.10285) supplemented with 100 μg/ml ampicillin (Sigma, Germany, cat. no. A9518) at 37° C. When the culture had reached a density corresponding to an A600 of 0.8, an equal volume of ice cold LB/ampicillin was added, the culture transferred to 25° C. and induced for 4 h with 1 mM isopropyl thiogalactoside (IPTG, Roth, Germany, cat. no. 2316.4). Cells harvested by centrifugation were resuspended in 10 ml lysis buffer (50 mM tris(hydroxymethyl)aminomethane hydrochloride (Tris/HCl, Sigma, Germany, cat. no. T5941) pH 7.5, 300 mM sodium chloride (NaCl, Sigma, Germany, cat. no. S7653), 5% (w/v) glycerol (Sigma, Germany, cat. no. G5516), 3 mM DTT dithiotreitol (DTT, Sigma, Germany, cat. no. D9779)) per gram wet weight cell pellet. Lysates were prepared by disruption of cells with a sonifier and subsequent clearing by centrifugation at 38000 g for 45 min at 4° C.
(§4) The lysate was applied to a GSTPrep FF 16/10 column (Amersham, Sweden, cat. no. 17-5234-01) equilibrated with lysis buffer. Removal of unbound material was with 3 column volumes (CV) lysis buffer. Elution was with 2 CV of elution buffer (50 mM Tris/HCl pH 7.5, 300 mM NaCl, 5% (w/v) glycerol, 20 mM glutathione (Sigma, Germany, cat. no. G4251)). Peak fractions were pooled and the protein transferred into storage buffer (50 mM Tris/HCl pH 7.5, 200 mM NaCl, 0.1 mM ethylene glycol-bis(2-aminoethylether)-N,N,N′,N′-tetraacetic acid (EGTA, Aldrich, Germany, cat. no. 23, 453-2), 1 mM DTT, 10% (w/v) glycerol, 0.5 M sucrose (Sigma, Germany, cat. no. SO389) by gel filtration on a PD10 desalting column (Amersham, Sweden, cat. no. 17-0851-01). Aliquots were shock frozen in liquid nitrogen and stored at −80° C.
(§5) Activation of Mnk1 and Mnk2a was at a concentration of 2.5 μM of either purified GST-Mnk1 or GST-Mnk2a by incubation with 150 nM pre-activated NHis-ERK2 (see ERK2 assay for preparation) and 50 μM adenosine triphosphate (ATP, Sigma, cat. no. A2699) in a buffer comprising 20 mM N-(2-hydroxyethyl)piperazine-N′-(2-ethanesulfonic acid) (HEPES, Fluka, Germany, cat. no 54459)/potassium hydroxide (KOH, Roth, Germany, cat. no 6751.1) pH 7.4, 10 mM magnesium chloride (MgCl2, Sigma, Germany, cat. no. M2670), 0.25 mM DTT, 0.05% (w/v) polyoxyethylene 20 stearylether (Brij 78, Sigma, Germany, cat. no. P4019) (HMDB buffer) for 45 min at 30° C.

The target in a further test is human Mnk1 (Homo sapiens (Human), UniProt Q9BUB5). The experiment in a line: Mnk1 in vitro kinase assay (indirect fluorescence polarization). It is filed as biochemical. Here is the method: as §1, §2, §3, §4, §5

By IC50 is commonly meant the midpoint of a concentration-inhibition curve.

human Mnk1, sequence (Q9BUB5 other isoform, or with tags, fused parts or gaps): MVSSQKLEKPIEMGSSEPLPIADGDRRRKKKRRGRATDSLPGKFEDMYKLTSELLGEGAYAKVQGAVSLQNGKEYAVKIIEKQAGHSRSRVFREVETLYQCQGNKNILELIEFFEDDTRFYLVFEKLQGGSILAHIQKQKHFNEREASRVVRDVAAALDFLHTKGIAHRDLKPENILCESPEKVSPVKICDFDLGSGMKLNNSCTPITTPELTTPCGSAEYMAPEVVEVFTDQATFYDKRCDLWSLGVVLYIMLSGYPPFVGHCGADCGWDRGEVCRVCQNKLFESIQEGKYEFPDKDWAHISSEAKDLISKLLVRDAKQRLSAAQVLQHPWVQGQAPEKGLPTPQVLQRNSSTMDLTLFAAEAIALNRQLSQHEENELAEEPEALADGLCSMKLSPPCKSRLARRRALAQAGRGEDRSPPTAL
human Mnk2a, sequence (Q9HBH9 whole entry): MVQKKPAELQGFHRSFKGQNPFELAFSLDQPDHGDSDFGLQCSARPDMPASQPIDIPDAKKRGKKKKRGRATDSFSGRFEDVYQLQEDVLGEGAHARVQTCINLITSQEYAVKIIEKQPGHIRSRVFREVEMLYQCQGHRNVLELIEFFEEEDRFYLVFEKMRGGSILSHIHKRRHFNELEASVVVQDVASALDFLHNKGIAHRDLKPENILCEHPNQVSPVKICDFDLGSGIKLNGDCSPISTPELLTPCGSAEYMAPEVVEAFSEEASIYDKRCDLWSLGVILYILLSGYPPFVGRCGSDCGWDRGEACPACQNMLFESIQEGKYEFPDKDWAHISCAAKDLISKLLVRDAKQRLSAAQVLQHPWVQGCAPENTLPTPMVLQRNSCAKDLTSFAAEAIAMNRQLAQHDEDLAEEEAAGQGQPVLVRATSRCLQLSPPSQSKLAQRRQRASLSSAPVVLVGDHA

For `Nc1ncnc2n[nH]c(Nc3ccc(F)cc3)c12` [CGP57380], the “reduction of phosphorylated eIF4E” value in test [1] was “strong reduction”. In the case of `CCOc1cc(C(N)=O)ccc1Nc1ncnc2sc(C(N)=O)c(C)c12` [Example 2, 4-(4-Carbamoyl-2-ethoxyphenylamino)-5-methylthieno[2,3-d]pyrimidine-6-carboxamide], the IC50 amounted to 0.028 µM against human Mnk2a and 0.12 µM at human Mnk1.

For `COCCNC(=O)c1sc2ncnc(Nc3ccc(F)cc3OC3CCOCC3)c2c1C` [Example 6, 4-(4-Fluoro-2-(tetrahydro-2H-pyran-4-yloxy)phenylamino)-N-(2-methoxyethyl)-5-methylthieno[2,3-d]pyrimidine-6-carboxamide], the IC50 on human Mnk2a came out at 0.035 µM; against human Mnk1, 0.18 µM.

Turning to `Cc1c(C(=O)NCCCN(C)C)sc2ncnc(Nc3ccc(F)cc3OC3CCOCC3)c12` [Example 9, N-(3-(Dimethylamino)propyl)-4-(4-fluoro-2-(tetrahydro-2H-pyran-4-yloxy)phenyl-amino)-5-methylthieno[2,3-d]pyrimidine-6-carboxamide], the IC50 at human Mnk2a was 0.027 µM; against human Mnk1, 0.1 µM. Turning to `Cc1c(C(=O)NCCN2CCOCC2)sc2ncnc(Nc3ccc(F)cc3OC3CCOCC3)c12` [Example 10, 4-(4-Fluoro-2-(tetrahydro-2H-pyran-4-yloxy)phenylamino)-5-methyl-N-(2-morpholinoethyl)thieno[2,3-d]pyrimidine-6-carboxamide], the values for the IC50 against human Mnk2a and at human Mnk1 were 0.034 µM and 0.21 µM, respectively. For `Cc1c(C(=O)NCCCN(C)C)sc2ncnc(Nc3ccc(C(F)(F)F)nc3OC3CCOCC3)c12` [Example 34, 4-(2-(Tetrahydro-2H-pyran-4-yloxy)-6-(trifluoromethyl)pyridin-3-ylamino)-N-(3-(dimethylamino)propyl)-5-methylthieno[2,3-d]pyrimidine-6-carboxamide] the same measures were 0.56 µM and 0.68 µM. On the same counts, the results for `Fc1ccc(Nc2ncnc3sc4c(c23)CCNC4)c(OC2CCOCC2)c1` [Example 41, [4-fluoro-2-(tetrahydro-2H-pyran-4-yloxy)-phenyl]-(5,6,7,8-tetrahydro-pyrido[4′,3′:4,5]thieno[2,3-d]pyrimidin-4-yl)-amine] are 0.11 µM and 0.21 µM. On the same counts, the results for `Cc1c(C(N)=O)sc2ncnc(Nc3ccc(F)cc3OC3CCN(Cc4ncon4)CC3)c12` [Example 48, 4-(2-(1-((1,2,4-Oxadiazol-3-yl)methyl)piperidin-4-yloxy)-4-fluorophenylamino)-5-methylthieno[2,3-d]pyrimidine-6-carboxamide] are 0.092 µM and 0.46 µM.

Turning to `Cc1c(C(=O)NCCCN(C)C)sc2ncnc(Nc3ccc(F)cc3OC(C)C)c12` [Example 53, N-(3-(Dimethylamino)propyl)-4-(4-fluoro-2-iso-propoxyphenylamino)-5-methylthieno[2,3-d]pyrimidine-6-carboxamide], the results for the IC50 on human Mnk2a and on human Mnk1 were 0.006 µM and 0.035 µM, respectively.
